From patent US10723705B2, “Heterocyclic compounds and uses thereof” (Incyte Corporation, priority 2015, dated 2020)
Like-named read-outs stand apart in the source and are kept apart here.

Target: Human recombinant Histone Deacetylase 8 (HDAC8) (Homo sapiens (Human), UniProt Q9BY41)
Experiment: HDAC8 Enzymatic Assay (HDAC-Glo I/II luminescence)
Assay type: biochemical
Procedure, shortened: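 Human recombinant HDAC8 (1.5 nM final) preincubated with compound for 30 min, then reacted with 50 μM Boc-GAK(Ac)-aminoluciferin plus trypsin-containing developer for 15 min at room temperature, pH 8.0, 0.5% DMSO. Luminescence read-out; IC50 from percent control activity versus log concentration.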

[1] = class symbols, Table 14, read-out: HDAC8 IC50

Chain of Human recombinant Histone Deacetylase 8 (HDAC8) (Q9BY41 whole entry): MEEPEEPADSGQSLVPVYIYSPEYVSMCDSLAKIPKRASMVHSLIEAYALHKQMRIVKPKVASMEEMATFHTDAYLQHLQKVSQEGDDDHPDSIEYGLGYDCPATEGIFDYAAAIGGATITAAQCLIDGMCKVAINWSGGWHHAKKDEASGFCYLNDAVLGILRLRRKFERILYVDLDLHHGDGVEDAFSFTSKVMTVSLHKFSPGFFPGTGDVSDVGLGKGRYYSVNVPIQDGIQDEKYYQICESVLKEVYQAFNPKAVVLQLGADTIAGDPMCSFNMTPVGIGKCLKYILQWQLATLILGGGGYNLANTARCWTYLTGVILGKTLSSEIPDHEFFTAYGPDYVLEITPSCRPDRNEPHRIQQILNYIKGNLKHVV

SMILES	IC50 [1]	IC50 (HDAC8, read-out: IC50)
Cn1nccc1-c1ccn2c(C(Cc3ccccc3)C(=O)NO)cnc2c1 (centres unmarked) [Compound I-0115, N-hydroxy-2-(7-(1-methyl-1H-pyrazol-5-yl)imidazo[1,2-a]pyridin-3-yl)-3-phenylpropanamide]	200 to 500 nM	–
O=C(NO)C(Cc1ccccc1)n1ncc2cc(-c3ccccc3)cnc21 (centres unmarked) [Compound I-0116, N-hydroxy-3-phenyl-2-(5-phenyl-1H-pyrazolo[3,4-b]pyridin-1-yl)propanamide]	> 500 nM	–
N#Cc1ccc(-c2cnc3c(cnn3C(Cc3ccccc3)C(=O)NO)c2)cc1 (centres unmarked) [Compound I-0117, 2-(5-(4-cyanophenyl)-1H-pyrazolo[3,4-b]pyridin-1-yl)-N-hydroxy-3-phenylpropanamide]	> 500 nM	–
NC(=O)c1ccc(-c2cnc3c(cnn3C(Cc3ccccc3)C(=O)NO)c2)cc1 (centres unmarked) [Compound I-0118, 4-(1-(1-(hydroxyamino)-1-oxo-3-phenylpropan-2-yl)-1H-pyrazolo[3,4-b]pyridin-5-yl)benzamide]	200 to 500 nM	–
Cn1nccc1-c1cnc2c(cnn2C(Cc2ccccc2)C(=O)NO)c1 (centres unmarked) [Compound I-0119, N-hydroxy-2-(5-(1-methyl-1H-pyrazol-5-yl)-1H-pyrazolo[3,4-b]pyridin-1-yl)-3-phenylpropanamide]	200 to 500 nM	–
Cn1cc(-c2cnc3c(cnn3C(Cc3ccccc3)C(=O)NO)c2)cn1 (centres unmarked) [Compound I-0120, N-hydroxy-2-(5-(1-methyl-1H-pyrazol-4-yl)-1H-pyrazolo[3,4-b]pyridin-1-yl)-3-phenylpropanamide]	200 to 500 nM	–
O=C(NO)C(Cc1ccccc1)n1ncc2cc(-c3cncnc3)cnc21 (centres unmarked) [Compound I-0121, N-hydroxy-3-phenyl-2-(5-(pyrimidin-5-yl)-1H-pyrazolo[3,4-b]pyridin-1-yl)propanamide]	200 to 500 nM	–
O=C(NO)C(Cc1ccccc1)n1ncc2cc(Br)cnc21 (centres unmarked) [Compound I-0122, 2-(5-bromo-1H-pyrazolo[3,4-b]pyridin-1-yl)-N-hydroxy-3-phenylpropanamide]	200 to 500 nM	–
O=C(NO)C(Cc1ccccc1)n1cc2cc(Br)cnc2n1 (centres unmarked) [Compound I-0123, 2-(5-bromo-2H-pyrazolo[3,4-b]pyridin-2-yl)-N-hydroxy-3-phenylpropanamide]	200 to 500 nM	–
O=C(NO)C(Cc1ccccc1)n1nc(I)c2ccnc(Cl)c21 (centres unmarked) [Compound I-0124, 2-(7-chloro-3-iodo-1H-pyrazolo[3,4-c]pyridin-1-yl)-N-hydroxy-3-phenylpropanamide]	50 to 200 nM	–
O=C(NO)C(Cc1ccccc1)n1nc2c(Cl)nccc2c1I (centres unmarked) [Compound I-0125, 2-(7-chloro-3-iodo-2H-pyrazolo[3,4-c]pyridin-2-yl)-N-hydroxy-3-phenylpropanamide]	50 to 200 nM	–
O=C(NO)C(Cc1ccccc1)n1nc(C#CC2CC2)c2ccnc(Cl)c21 (centres unmarked) [Compound I-0126, 2-[7-Chloro-3-(cyclopropylethynyl)-1H-pyrazolo[3,4-c]pyridin-1-yl]-N-hydroxy-3-phenylpropanamide]	50 to 200 nM	101 nM
O=C(NO)C(Cc1ccccc1)n1nc2c(Cl)nccc2c1C#CC1CC1 (centres unmarked) [Compound I-0127, 2-[7-Chloro-3-(cyclopropylethynyl)-2H-pyrazolo[3,4-c]pyridin-2-yl]-N-hydroxy-3-phenylpropanamide]	≤ 50 nM	5.7 nM
Cn1nccc1-c1nccc2c(C#CC3CC3)n(C(Cc3ccccc3)C(=O)NO)nc12 (centres unmarked) [Compound I-0128, 2-[3-(Cyclopropylethynyl)-7-(1-methyl-1H-pyrazol-5-yl)-2H-pyrazolo[3,4-c]pyridin-2-yl]-N-hydroxy-3-phenylpropanamide]	≤ 50 nM	4.3 nM
O=C(NO)C(Cc1ccccc1)n1cc2ccnc(Cl)c2n1 (centres unmarked) [Compound I-0129, 2-(7-chloro-2H-pyrazolo[3,4-c]pyridin-2-yl)-N-hydroxy-3-phenylpropanamide]	200 to 500 nM	–
N#Cc1cccc(-c2cnc3c(cnn3C(Cc3ccccc3)C(=O)NO)c2)c1 (centres unmarked) [Compound I-0130, 2-(5-(3-cyanophenyl)-1H-pyrazolo[3,4-b]pyridin-1-yl)-N-hydroxy-3-phenylpropanamide]	> 500 nM	–
NC(=O)c1cccc(-c2cnc3c(cnn3C(Cc3ccccc3)C(=O)NO)c2)c1 (centres unmarked) [Compound I-0131, 3-(1-(1-(hydroxyamino)-1-oxo-3-phenylpropan-2-yl)-1H-pyrazolo[3,4-b]pyridin-5-yl)benzamide]	200 to 500 nM	–
O=C(NO)C(Cc1ccccc1)n1ncc2cc(-c3cccnc3)cnc21 (centres unmarked) [Compound I-0132, N-hydroxy-3-phenyl-2-(5-(pyridin-3-yl)-1H-pyrazolo[3,4-b]pyridin-1-yl)propanamide]	200 to 500 nM	–
O=C(NO)C(Cc1ccccc1)n1ncc2cc(-c3ccncc3)cnc21 (centres unmarked) [Compound I-0133, N-hydroxy-3-phenyl-2-(5-(pyridin-4-yl)-1H-pyrazolo[3,4-b]pyridin-1-yl)propanamide]	> 500 nM	–
O=C(NO)C(Cc1ccccc1)c1cnc2c(Cl)cccn12 (centres unmarked) [Compound I-0134, 2-(8-Chloroimidazo[1,2-a]pyridin-3-yl)-N-hydroxy-3-phenylpropanamide]	200 to 500 nM	258 nM
O=C(NO)C(Cc1ccccc1)n1nc2c(Cl)cccc2c1I (centres unmarked) [Compound I-0135, 2-(7-chloro-3-iodo-2H-indazol-2-yl)-N-hydroxy-3-phenylpropanamide]	200 to 500 nM	–
O=C(NO)C(Cc1ccccc1)n1nc2c(Cl)cccc2c1C#CC1CC1 (centres unmarked) [Compound I-0136, 2-(7-chloro-3-(cyclopropylethynyl)-2H-indazol-2-yl)-N-hydroxy-3-phenylpropanamide]	≤ 50 nM	–
Cn1nccc1-c1cccc2c(C#CC3CC3)n(C(Cc3ccccc3)C(=O)NO)nc12 (centres unmarked) [Compound I-0137, 2-(3-(cyclopropylethynyl)-7-(1-methyl-1H-pyrazol-5-yl)-2H-indazol-2-yl)-N-hydroxy-3-phenylpropanamide]	≤ 50 nM	–
NC(=O)c1ccc(-c2cccc3c(C#CC4CC4)n(C(Cc4ccccc4)C(=O)NO)nc23)cc1 (centres unmarked) [Compound I-0138, 4-(3-(cyclopropylethynyl)-2-(1-(hydroxyamino)-1-oxo-3-phenylpropan-2-yl)-2H-indazol-7-yl)benzamide]	≤ 50 nM	–
CN(C)C(=O)c1ccc(-c2cccc3c(C#CC4CC4)n(C(Cc4ccccc4)C(=O)NO)nc23)cc1 (centres unmarked) [Compound I-0139, 4-(3-(cyclopropylethynyl)-2-(1-(hydroxyamino)-1-oxo-3-phenylpropan-2-yl)-2H-indazol-7-yl)-N,N-dimethylbenzamide]	≤ 50 nM	–
NC(=O)c1ccc(-c2nccc3c(C#CC4CC4)n(C(Cc4ccccc4)C(=O)NO)nc23)cc1 (centres unmarked) [Compound I-0140, 4-(3-(cyclopropylethynyl)-2-(1-(hydroxyamino)-1-oxo-3-phenylpropan-2-yl)-2H-pyrazolo[3,4-c]pyridin-7-yl)benzamide]	≤ 50 nM	–
CNC(=O)c1ccc(-c2nccc3c(C#CC4CC4)n(C(Cc4ccccc4)C(=O)NO)nc23)cc1 (centres unmarked) [Compound I-0141, 4-(3-(cyclopropylethynyl)-2-(1-(hydroxyamino)-1-oxo-3-phenylpropan-2-yl)-2H-pyrazolo[3,4-c]pyridin-7-yl)-N-methylbenzamide]	≤ 50 nM	–
CN(C)C(=O)c1ccc(-c2nccc3c(C#CC4CC4)n(C(Cc4ccccc4)C(=O)NO)nc23)cc1 (centres unmarked) [Compound I-0142, 4-(3-(cyclopropylethynyl)-2-(1-(hydroxyamino)-1-oxo-3-phenylpropan-2-yl)-2H-pyrazolo[3,4-c]pyridin-7-yl)-N,N-dimethylbenzamide]	≤ 50 nM	–
